pIC50: −log10 of the molar value.
Columns and labels:
[1] = system: PD-L1 protein on the surface of mouse syngeneic tumor cell lines; experiment: PD-L1 protein on the surface of mouse syngeneic tumor cells; type: cell-based; details: with or without INFγ, IC50 amount of Coenzyme Q10, 24 hours
Procedure: The effect of Coenzyme Q10 on the level of PD-L1 protein on the surface of the mouse syngeneic tumor cells was also evaluated. Mouse syngeneic tumor cell lines from different tissue types were cultured with or without interferon γ (INFγ) in the presence or absence of their corresponding IC50 amount of Coenzyme Q10 at 37° C. for 24 hours.

[2] = system: tumor associated macrophages (TAMs) in murine Pan02 pancreatic tumors; experiment: F4/80 IHC pathological scoring of tumor associated macrophages in Pan02 tumors; type: in vivo, mouse
Procedure: Pancreatic tumor samples from mice treated with different doses of Coenzyme Q10 were analyzed for the presence of tumor associated macrophages (TAMs). TAMs are found in close proximity to or within tumors and support tumor growth. C57B1/6 female mice were inoculated with Pan02 cells. When tumors reached a mean volume of 100 mm^3, animals were randomized into four groups and treated with vehicle control or Coenzyme Q10 (25, 50 or 100 mg/kg) twice daily for 21 days. At the end of the study, tumors were removed and subjected to immunohistochemistry (IHC) analysis for TAMs using the F4/80 marker. All slides were subjected to a pathological scoring. […] As shown in FIGS. 28A and 28B, Coenzyme Q10 decreased TAMs in a dose dependent manner.

[3] = system: tumor infiltrating lymphocytes (TILs) in murine Pan02 pancreatic tumors; experiment: CD8 IHC pathological scoring of tumor infiltrating lymphocytes in Pan02 tumors; type: in vivo, mouse
Procedure: Tumor samples from mice with murine Pan02 tumors treated with different doses of Coenzyme Q10 were analyzed for the presence of tumor infiltrating lymphocytes (TILs). C57B1/6 female mice were inoculated with 3×10^7 Pan02 cells. When tumors reached a mean volume of 100 mm^3, animals were randomized into four groups and treated with vehicle control or Coenzyme Q10 (25, 50 or 100 mg/kg) twice daily for 21 days. At the end of the study, tumors were removed and subjected to IHC analysis for Tumor Infiltrating Lymphocytes (TILs) with CD8 staining. All slides were subjected to a pathological scoring. […] As shown in FIGS. 29A and 29B, Coenzyme Q10 increased TILs in a dose-dependent manner.

[4] = system: mouse syngeneic tumor cell lines (LL2, Hepa1-6, B16F10, CT26, EMT6/P, Renca); experiment: Cell viability (CellTiter-Fluor), all six mouse syngeneic tumor cell lines; type: cell-based; details: 0-25 mM, 72 hours, dose dependent
Procedure: (§1) The sensitivity of mouse syngeneic tumor cell lines to Coenzyme Q10 was evaluated in vitro. Six mouse syngeneic tumor cell lines from different tissue types were exposed to increasing concentrations of Coenzyme Q10 (0-25 mM) at 37° C. for 72 hours. Cell viability was measured using CellTiter-Fluor kit (Promega, Madison, Wis.). Graphs and IC50 values were calculated using GraphPad Prism using data for at least three independent experiments. Mouse syngeneic tumor cell lines evaluated were Lewis lung carcinoma (LL2), hepatoma (Hepa1-6) skin melanoma (B16F10), colon cancer (CT26), mammary gland adenocarcinoma (EMT6/P), and renal adenocarcinoma (Renca). As shown in FIGS. 24A-24F, Coenzyme Q10 reduced viability of all of the tumor cell lines in a dose dependent manner.

[5] = system: human T cells within PBMCs; experiment: T cell proliferation by Click-iT EdU flow cytometry; type: cell-based; details: 200 μM Coenzyme Q10, 72 hours, EdU final 18 hours
Procedure: Proliferation of T cells was assessed by flow cytometry using Click-iT® EdU technology (Thermo Fisher Scientific, Waltham, Mass.), a proliferation assay that is optimized for fluorescence microscopy applications. In this assay, the modified thymidine analogue EdU is incorporated into newly synthesized DNA and fluorescently labeled with a bright, photostable Alexa Fluor® dye. PBMCs were obtained from three different human donors. PBMCs were incubated with or without PHA for 72 hours while concurrently treated with Coenzyme Q10 (200 μM). 10 μM of EdU was added for the final 18 hours and stained with Invitrogen Alexa Fluor 488 piclyl azide according to the manufacturer's protocol. Cells were then stained with surface marker antibodies for CD3/CD8, or CD3/CD4 to identify cytotoxic T cells or helper T cells, respectively. Cells were then analyzyed by flow cytometry applying gating strategy.

[6] = system: Renca renal adenocarcinoma cells; experiment: Cell viability (CellTiter-Fluor) of mouse syngeneic tumor cell line; type: cell-based; details: 72 hours, 37° C.
Procedure: as §1

[7] = system: LL/2 Lewis lung carcinoma cells; experiment: as above; type: cell-based; details: LL/2, 72 hours, 37° C.
Procedure: as §1

[8] = system: EMT6/P mammary gland adenocarcinoma cells; experiment: as above; type: cell-based; details: 72 hours, 37° C.
Procedure: as §1

Hepa1-6 hepatoma cells = experiment: as above; type: cell-based; details: Hepa1-6, 72 hours, 37° C.
Procedure: as §1

[9] = system: B16F10 skin melanoma cells; experiment: as above; type: cell-based; details: B16F10, 72 hours, 37° C.
Procedure: as §1

CT26 colon cancer cells = experiment: as above; type: cell-based; details: CT26, 72 hours, 37° C.
Procedure: as §1

[10] = 25 mg/kg twice daily for 21 days
[11] = 50 mg/kg twice daily for 21 days
[12] = 100 mg/kg twice daily for 21 days

SMILES: COC1=C(OC)C(=O)C(C/C=C(\C)CC/C=C(\C)CC/C=C(\C)CC/C=C(\C)CC/C=C(\C)CC/C=C(\C)CC/C=C(\C)CC/C=C(\C)CC/C=C(\C)CCC=C(C)C)=C(C)C1=O [Coenzyme Q10]
- Level of PD-L1 protein on the cell surface [1]: did not have any effect
- Percentage of mice with TAM levels Higher than Control [2, 10]: 0%
- Percentage of mice with TAM levels Lower than Control [2, 10]: 20%
- Percentage of mice with TAM levels Similar to Control [2, 10]: 80%
- Percentage of mice with TAM levels Higher than Control [2, 11]: 0%
- Percentage of mice with TAM levels Lower than Control [2, 11]: 85.8%
- Percentage of mice with TAM levels Similar to Control [2, 11]: 14.3%
- Percentage of mice with TAM levels Higher than Control [2, 12]: 0%
- Percentage of mice with TAM levels Lower than Control [2, 12]: 44.4%
- Percentage of mice with TAM levels Similar to Control [2, 12]: 55.6%
- Tumor associated macrophages (TAMs) in tumors ([2]; 25, 50 or 100 mg/kg twice daily for 21 days): decreased
- Percentage of mice with TIL levels Higher than Control [3, 10]: 40%
- Percentage of mice with TIL levels Lower than Control [3, 10]: 10%
- Percentage of mice with TIL levels Similar to Control [3, 10]: 50%
- Percentage of mice with TIL levels Higher than Control [3, 11]: 42.9%
- Percentage of mice with TIL levels Lower than Control [3, 11]: 28.6%
- Percentage of mice with TIL levels Similar to Control [3, 11]: 28.6%
- Percentage of mice with TIL levels Higher than Control [3, 12]: 55.2%
- Percentage of mice with TIL levels Lower than Control [3, 12]: 33.3%
- Percentage of mice with TIL levels Similar to Control [3, 12]: 11.1%
- Tumor infiltrating lymphocytes (TILs) in tumors ([3]; 25, 50 or 100 mg/kg twice daily for 21 days, dose-dependent): increased
- Viability of all of the tumor cell lines [4]: reduced
- Proliferation of PHA-activated cytotoxic T cells [5]: increased
- pIC50 [6]: 2.43
- pIC50 [7]: 3.62
- pIC50 [8]: 2.66
- pIC50 (Hepa1-6 hepatoma cells): 3.04
- pIC50 [9]: 2.87
- pIC50 (CT26 colon cancer cells): 2.72

— patent US20180021270A1, “METHODS FOR THE TREATMENT OF CANCER USING COENZYME Q10 IN COMBINATION WITH IMMUNE CHECKPOINT MODULATORS” (Berg LLC, priority 2016, published 2018)
